How the values were obtained:
Assay in all cases: Free drug in vitro cytotoxicity (resazurin)
Format in all cases: cell-based
786-O = tested on: 786-O
Procedure: (§1) Cells as detailed below were collected and plated in 96 well black-sided plates at a density of 10,000 cells/well in 150 μL of medium. […] Resazurin (0.25 mM, 50 μL, Sigma, St. Louis, Mo.) in medium was added and incubation was continued for 4 hours. The plates were read on a Fusion HT microplate reader (Packard, Meriden, Conn.) using an excitation wavelength of 525 nm and an emission wavelength of 590 nm. Data from all assays were reduced using GraphPad Prism Version 4 for Windows (GraphPad Software, San Diego, Calif.). The IC50 concentrations compared to untreated control cells were determined using a 4 parameter curve fits.

HEL9217 = tested on: HEL9217
Procedure: as §1

HL60 = tested on: HL60
Procedure: as §1

Caki-1 = tested on: Caki-1
Procedure: as §1

## COC(=O)c1ccc(C2=CN3C(=O)c4cc(OC)c(OCCCCCOc5cc6c(cc5OC)C(=O)N5C=C(c7ccc(N)cc7)C[C@H]5C=N6)cc4N=C[C@@H]3C2)cc1 [compound 4, (S)-2-(4-aminophenyl)-7-methoxy-8-(5-((S)-7-methoxy-2-(4-methyloxycarbonylphenyl)-5-oxo-5,11a-dihydro-1H-pyrrolo[2,1-c][1,4]benzodiazepin-8-yloxy)pentyloxy)-1H-pyrrolo[2,1-c][1,4]benzodiazepine-5(11aH)-one]
786-O; Homo sapiens, 786-0, following 48 hours treatment
  IC50: 0.05 nM
HEL9217; Homo sapiens, HEL 92.1.7, following 48 hours treatment
  IC50: 0.008 nM
HL60; Homo sapiens, HL-60, following 48 hours treatment
  IC50: 0.008 nM
Caki-1; Homo sapiens, CAKI-1, following 48 hours treatment
  IC50: 0.02 nM

## COc1cc2c(cc1OCCCOc1cc3c(cc1OC)C(=O)N1C=C(c4ccc(O)cc4)C[C@H]1C=N3)N=C[C@@H]1CC(c3ccc(N)cc3)=CN1C2=O [compound 14]
786-O; following 48 hours treatment
  IC50: 0.2 nM
HEL9217; following 48 hours treatment
  IC50: 0.05 nM
HL60; following 48 hours treatment
  IC50: 0.03 nM
Caki-1; following 48 hours treatment
  IC50: 0.4 nM
